Experimental data from patent US12551543B2, “Vaccine compositions comprising C—C motif chemokine 22 (CCL22) or fragments thereof” (IO BIOTECH APS, priority 2015, dated 2026).
“Also recorded” adds a separate entry of the source. Read-outs that look alike come from different tables or passages of the source.

What was measured:
C57BL/6 mice = test: Murine CCL22 peptide vaccination, IFNγ ELISPOT on splenocytes; type: in vivo; settings: 100 μg peptide s.c. in IFA/PBS once a week for 3 weeks
Experimental: Murine CCL22 peptide (TAG Copenhagen, Denmark) stocks of 10 mM (mCCL22Short) and 5 mM (mCCL22Long) were made in DMSO. Mice were vaccinated subcutaneously (s.c) on the lower back with 100 μg peptide in 1:1 (vol/vol) IFA/PBS emulsion in a total volume of 100 μl. Mice were vaccinated once a week for 3 weeks and sacrificed one week after the last vaccination.
Spleens from sacrificed mice were removed and smashed through a cell strainer ([…]) and washed with R10 media: RPMI 1640 (Gibco® by Life technologies™) with 10% FCS (Gibco® by Life technologies™). Red blood cells lysed by adding red blood cell lysis buffer for 2 min, followed by two washes with R10 with 10% fetal bovine serum.
ELISPOT was performed as described by the manufacturer's instruction. In short, 96-well MSIPN4W ELISPOT plate (Millipore) were coated with mouse IFNγ-specific capture Ab (AN18: Mabtech) in a concentration of 12 μg/ml in PBS overnight at 4° C., 8×10^5 or 4×10^5 splenocyteslwell were seeded in the plate in triplicates. To investigate IFNγ response to murine CCL22 peptides, cells were incubated with different peptides (5 μM) or R10 as control for 18-20 h at 37° C. ELISPOT was developed with mouse IFNγ-specific detection Ab (R4-6A2-biotin; Mabtech) in a concentration of 1 μg/ml in Buffer (PBS, 0.5% BSA and NaN3) for 2 h at room temperature, followed by 6 washes in PBS. […]

T2 cells = test: 51Cr-release cytotoxicity assay, peptide-pulsed T2 cells; type: cell-based; settings: for T-cell avidity of pCCL223-12-specific T cells, peptide titration: effector to target ratio 3:1
Experimental: (§1) Conventional ^51Cr-release assays for CTL-mediated cytotoxicity were carried out as described elsewhere (Andersen et al., 1999). Target cells were T2-cells (ATCC), HLA-A2^+ EBV transformed B-cell line (RPM16666), AML cells (UKE-1 and THP1) colon cancer cells (SW480), melanoma cell line (FM55-M2), Breast cancer cells MDA-MB231 with or without IFN-γ (100 U/m1) addition for 2 days prior to performing cytotoxicity assay. For peptide titration cytotoxicity assay, T2 cells were used as target cells and a constant effector to target ratio of 3:1 was used for all peptide concentrations.

[1] = system: PBMCs from cancer patients and healthy donors; test: IFNγ ELISPOT on PBMCs; type: cell-based, human
Experimental: In the present study the ELISPOT was performed according to the guidelines provided by CIP (http://cimt.eu/cimt/files/dl/cip guidelines.pdf). The ELISPOT assay was used to quantify peptide epitope specific effector cells that release cytokines (IFNγ, TNFα, IL-17A or IL-10) as described previously (Sorensen et al., 2012). In some experiments, PBMCs were stimulated once in vitro with peptide prior to analysis. In some experiments, 104 autologous DCs were added to the wells as antigen presenting cells. The spots were counted using the ImmunoSpot Series 2.0 Analyzer (C.T.L.—Europe, Bonn, Germany). In some experiments, CD4+ cells were isolated by EasySep human CD4^+ T cell enrichment kit (Stem Cell technologies, Grenoble, France) following manufacturers' instructions. This yielded highly pure cultures (>97% CD4+), which was confirmed by staining with surface antibodies as described below for intracellular cytokine staining (ICS) and flow cytometry (FCM).
PBMCs were placed in the bottom of ELISPOT plate (nitrocellulose bottomed 96-well plates by MultiScreen MAIP N45; Millipore) pre-coated with IFN-γ capture Ab (Mabtech) and the peptides were added at 5 μg/ml. PBMCs from each patient were set up in duplicates or triplicates for peptide and control stimulations. Cells were incubated in ELISPOT plates in the presence of an antigen for 14-16 hours after which they are washed off and secondary biotinylated Ab (Mabtech) was added. After 2h incubation unbound secondary antibody was washed off and streptavidin conjugated alkaline phosphatase (AP) (Mabtech) was added for 1 h. Next, unbound conjugated enzyme is washed off and the assay is developed by adding BCIP/NBT substrate (Mabtech). Developed ELISPOT plates were analysed on CTL ImmunoSpot S6 Ultimate-V analyzer using Immunospot software v5.1. Responses were calculated as the difference between average numbers of spots in wells stimulated with pCCL223-12 peptide and control wells. […]

[2] = system: CCL22-specific T cell cultures; test: Intracellular staining for IFNγ and TNFα after peptide stimulation; type: cell-based, human
Experimental: (§2) The following day IL-7 and IL-12 (PeproTech, London, UK) were added. […] The day after peptide stimulation IL-2 (PeproTech, London, UK) was added. 4 DC stimulations and 1 PBMC stimulation were made in total.
The cells were then stained for surface markers, then washed and permeabilized by using Fixation/Permeabilization and Permeabilization Buffer (eBioscience), according to manufacturer's instructions. Antibodies used: IFNγ-PE-Cy7, TNFa-APC, CD4-PerCP, CD8− FITC (all from BD Biosciences). Dead cells were stained using LIVE/DEAD® Fixable Near-IR Dead Cell Stain Kit according to manufacturer's instructions.

[3] = system: PBMCs from a melanoma patient; test: HLA-A2/peptide tetramer staining; type: cell-based, human
Experimental: as §2
HLA-A2 multimers were produced in house by using a previously described MHC peptide exchange technology (15).

K562-A2 cells = test: 51Cr-release assay, HLA-A2-transfected K562 cells pulsed with peptide; type: cell-based
HLA-negative K562 cells = test: 51Cr-release assay, non-transfected K562 cells pulsed with peptide; type: cell-based
Experimental: as §1, with “assay.” for “assay. For peptide titration cytotoxicity assay, T2 cells were used as target cells and a constant effector to target ratio of 3:1 was used for all peptide concentrations.”

CCL22 [4] = test: CCL22 ELISA of PBMC supernatants after peptide stimulation; type: cell-based, human
Experimental: Cell culture supernatants from PBMC, cancer cell lines and ascites cell cultures as well as siRNA transfected THP-1 cells were analyzed using Human CCL22/MDC DuoSet ELISA kit (R&D Systems) according to manufacturer's instructions.
(§3) PBMCs from healthy donors or cancer patients were thawed and rested for 4 hours in X-VIVO 15™ (Lonza) before being set up into 24-well plates with 2×10^6 cells/well in X-Vivo medium with 5% human serum. […] Appropriate amount of DMSO was added to HIV control wells to control for the solvent of pCCL223-12 peptide. The following day, IL-2 was added to a final concentration of 120 U/ml (360 U for ascites cells stimulation). Supernatant samples were collected after 2 or 7 days of culture. Cells were stimulated twice before being tested in ELISPOT assay.

CCL22 [5] = test: CCL22 ELISA of ovarian cancer ascites cell supernatants after peptide stimulation; type: cell-based, human; settings: ascites cells from ovarian cancer patients, IL-2, compared to HIV peptide
Experimental: Peripheral Blood Mononuclear Cells (PBMC) were collected from healthy individuals and cancer patients (melanoma, renal cell carcinoma and breast cancer patients). Blood samples were drawn a minimum of four weeks after termination of any kind of anti-cancer therapy. PBMC were isolated using Lymphoprep™ separation, HLA-typed and frozen in FCS with 10% DMSO. Fresh ovarian ascites was filtered with a 70 μm filter and the cells were isolated by centrifugation (1500 […], 5 min). If the ascites contained a high abundance of erythrocytes, they were removed by adding lysis-buffer (Ortho-Mune Lysing Solution) to the cells with incubation of 3-5 min. The lysis-buffer was quickly washed away and the cells cryopreserved in human serum with 10% DMSO at −140 degrees until use. The protocol was approved by the Scientific Ethics Committee for The Capital Region of Denmark and conducted in accordance with the provisions of the Declaration of Helsinki. Written informed consent from the patients was obtained before study entry.
Cell culture supernatants from PBMC, cancer cell lines and ascites cell cultures as well as siRNA transfected THP-1 cells were analyzed using Human CCL22/MDC DuoSet ELISA kit (R&D Systems) according to manufacturer's instructions. […]

PBMCs = test: Cytokine expression LUMINEX of PBMC supernatants after peptide stimulation; type: cell-based, human
Experimental: as §3, with “assay. Cell culture supernatants from PBMCs or ascites cells stimulated with CCL22-3 or HIV peptide were analyzed for IFN-γ, TNF-α, IL-6, IL-10 and 1 L-1β using Bio-Plex Pro™ Human Chemokine assays from Bio-Rad. […] Wilcoxon-signed rank test was used for statistical analysis of IL-10 expression due to multiple zero values.” for “assay.”

In the case of “MATLRVPLLVALVLLAVAIQTS (listed as Mus musculus) [mCCL22long, long murine CCL22 peptide]”, the “IFNγ ELISPOT immune response of splenocytes of vaccinated mice” value (C57BL/6 mice) is reported as “increased immune response”.

With “VALVLLAVAI (listed as Mus musculus) [mCCL22short, short murine CCL22 peptide; part of mCCL22Long]” the “IFNγ ELISPOT immune response of splenocytes of vaccinated mice” value (C57BL/6 mice) was “increased immune response”.

For “RLQTALLVV (listed as Homo sapiens) [pCCL223-11, Polypeptide fragment of human CCL22]”, the “T-cell avidity of pCCL223-12-specific T cells, peptide titration” value (“T-cell avidity” below) (T2 cells) was “reacted towards both peptides” and the “T-cell avidity” value (T2 cells; listed as CCL22-2) was “cross-react”.

For “MDRLQTALLVVLVLLAVALQAT (listed as Homo sapiens) [CCL22long, Polypeptide fragment of human CCL22]”, the “lysis of peptide-pulsed T2 cells by CCL22-specific T cells” value (shortened to “lysis of peptide-pulsed T2 cells”) (T2 cells) was “recognized and killed” and the “lysis of peptide-pulsed T2 cells” value (T2 cells; listed as CCL22-signal peptide) was “lysed”.

“RLQTALLVVL (listed as Homo sapiens) [pCCL223-12, Polypeptide fragment of human CCL22]” was tested, and the “spontaneous specific T-cell reactivity, IFN-γ ELISPOT” value ([1]; PBMCs from 13 cancer patients and 10 healthy individuals, peptide stimulation for two weeks with low-dose IL-2) was “detected in a number of melanoma patients and healthy donors”, the “overall ELISPOT responses, healthy donors versus cancer patients” value ([1]; peptide stimulation for two weeks with low-dose IL-2) was “similar” and the “specific responses by IFNγ ELISPOT” value ([1]; screen of PBMCs from cancer patients) was “Indications for specific responses”. The “CD4+ T cell response (IFNγ, TNFα) to peptide stimulation” value [2] was “no response detected”, the “CD4+ T cell response (IFNγ, TNFα) to peptide stimulation” value ([2]; listed as CCL22-3) was “no reactivity” and the “CD8+ T cell response (IFNγ, TNFα) to peptide stimulation” value ([2]; listed as CCL22-3) was “CD8+ (Left) and not CD4+ (Right) T cells react; also recorded: secreting IFN-γ and TNF-α”. For the same sequence, the “CD8+ cells secreting IFNγ and TNFα in response to peptide stimulation” value ([2]; tetramer-isolated, expanded culture) was “Around 30%”, the tetramer-positive cells ([3]; after five stimulations with peptide-pulsed autologous DCs or PBMCs) was “small but distinct population of tetramer-positive cells” and the tetramer-positive cells ([3]; after tetramer isolation and expansion) was “clear population”. The “lysis of peptide-pulsed T2 cells” value (T2 cells) was “able to lyse”, the “T-cell avidity” value (T2 cells) was “highest avidity” and the “T-cell avidity” value (T2 cells; listed as CCL22-3) was “recognized better”. The “lysis of peptide-pulsed T2 cells” value (T2 cells; listed as CCL22-3) was “lysed; also recorded: specifically recognize and lyse”, the “recognition of HLA-A2-transfected K562 cells pulsed with peptide” value (K562-A2 cells) was “only recognized” and the “recognition of HLA-A2-transfected K562 cells pulsed with peptide” value (K562-A2 cells; listed as CCL22-3) was “recognized and killed”. For the same sequence, the “recognition of non-transfected K562 cells pulsed with peptide” value (HLA-negative K562 cells) was “not recognized”, the “CCL22 concentration in supernatants compared to HIV control peptide” value (CCL22 [4]; PBMCs from 11 healthy donors, one week after stimulation) was “significantly decreased” and the “overall decrease in CCL22 concentration compared to HIV control peptide” value (CCL22 [4]; PBMCs from 13 cancer patients, one week after stimulation) was “did not reach significance”. For the same sequence, the “CCL22 concentration compared to HIV control peptide” value (CCL22 [4]; PBMCs from cancer patients with high CCL22 expression (≥5000 pg/mL)) was “significant decrease”, the “CCL22 expression in supernatant compared to HIV control peptide” value (CCL22 [4]; donor PBMCs with ELISPOT response, over one week, IL-2) was “lower” and the “overall CCL22 levels in supernatants” value (CCL22 [5]) was “decrease”. The “overall CCL22 levels in supernatants” value (CCL22 [5]; listed as CCL22-3) was “affected”, the “IL-10 in the supernatants after stimulation” value (PBMCs) was “almost undetectable” and the “IL-6 level compared to HIV control peptide” value (PBMCs; PBMCs from 11 cancer patients, one week of stimulation) was “significant increase”. For the same sequence, the “cultures with decreasing TNFα levels” value (PBMCs; PBMCs from cancer patients, one week of stimulation) was 7 out of 11, the “cultures with decreasing TNFα levels” value (PBMCs; PBMCs from healthy donors, one week of stimulation) was 7 out of 10 and the “IFN-γ concentration versus control peptide” value (PBMCs; culture supernatants) was “no unambiguous differences”. For the same sequence, the “IL-1β concentration versus control peptide” value (PBMCs; culture supernatants) was “no unambiguous differences”, the “IL-10 concentration versus control peptide” value (PBMCs; culture supernatants) was “no unambiguous differences” and the “IL-1 induced after stimulation” value (PBMCs; data not shown) was “only one cancer patient and two healthy donors”.
